Measurements reported in US20150352134A1, “COMPOSITION FOR TOPICAL SKIN APPLICATION CONTAINING GINSENOSIDE F2 DERIVED FROM HYDROPONIC GINSENG” (AMOREPACIFIC CORPORATION, priority 2012, published 2015).

Legend:
3T3-L1 cells = test: Lipogenesis inhibition in 3T3-L1 cells (Sudan III dyeing); type: cell-based, mouse; conditions: 50 µM
Method: The mouse fibroblast cell line, 3T3-L1 cells are immobilized in a 6-well culture plate filled with Dulbecco's modified eagle's medium (DMEM) (GIBCO BRL, Life Technologies, Inc.) containing 10% fetal bovine serum (FBS) at an amount of 1×10^5 cells/well. After 2 days, the used medium is replaced with a new DMEM (containing 10% FBS) medium to culture the cells for 2 days. […] After 5 days, the used DMEM medium is replaced with a normal medium (DMEM containing 10% FBS). The cells are cultured and observed until they are morphologically changed into fat cells. In order to evaluate the ginsenoside F2 in regards to the inhibitory effect on the fat accumulation in the fat cells, the completely differentiated 3T3-L1 fat cells are dyed with Sudan III ([…], Sigma-Aldrich). The fat cells are immobilized with 4% para-formaldehyde (pH 7.2) at the room temperature in a phosphate buffer solution. The fat cells are washed with phosphate-buffered saline (PBS) and then dyed with Sudan III. The picture of the fat cells is taken for visual evaluation. The control uses a medium using neither a test substance nor a comparative substance. The comparative control group is treated with 50 μM caffeine. The fat accumulation inhibitory ability is evaluated based on the degree of dying. The degree of dying is graded +++, ++, +, and - in the decreasing order.

[1] = tested on: prostaglandin generation in macrophagocytes collected from the abdominal cavity of a mouse; test: Prostaglandin generation inhibition in LPS-treated macrophagocytes (ELISA); type: cell-based; conditions: 100 μl of ginsenoside F2
Method: The inflammatory effect is evaluated in terms of the inhibitory effect on prostaglandin generation. Ginsenoside F2 is used to measure the effect on macrophagocytes. Firstly, macrophagocytes collected from the abdominal cavity of a mouse are treated with aspirin to have the final concentration of 500 µM, causing irreversible inhibition on the activity of cyclooxygenase (COX) remaining in the macrophagocytes. Then, 100 μl of the suspension is put in each well of a 96-well culture plate and cultured in an incubator under the conditions of 5% CO2 and 37° C. for 2 hours to immobilize the macrophagocytes on the surface of the container. Subsequently, the immobilized macrophagocytes are washed with PBS three times and used in the inflammatory improvement test. […] Then, the macrophagocytes are treated with 100 μl of ginsenoside F2, and the isolated prostaglandin is quantitatively analyzed by way of ELISA (Enzyme-Linked ImmunoSorbent Assey).
In this regard, the prostaglandin generation inhibitory activity of the ginsenoside F2 is determined by the reduced amount of prostaglandin generated in the LPS-treated group in comparison with the case of the control in terms of the percentage amount of the prostaglandin decreased by treatment with LPS and the sample, while the difference in the amount of the generated prostaglandin between the LPS-treated group and the control group is set to 100%.

Compound	Inhibition rate (%) (degree of dying with Sudan III) (3T3-L1 cells)	prostaglandin generation (Blank = 100%) [1] [%]
Cn1c(=O)c2c(ncn2C)n(C)c1=O [Comparative group, caffeine, reference compound]	+	–
CC(=O)Oc1ccccc1C(=O)O [Control (aspirin-treated group), aspirin, reference compound]	–	25.0
